Laboratory results taken from US6849607B2, “Galectin recognized photosensitizers for photodynamic therapy” (Health Research, Inc., priority 2001, dated 2005).

Experiments:
J774A.1 cells [1] = test: Photosensitizer uptake in J774A.1 cells (fluorescence/μg protein); type: cell-based; details: 1.0 μM, 3 and 24 hrs
Protocol: In order to test the galectin-specificity of the carbohydrate conjugates, the uptake and photosensitizing efficacy of photosensitizers 1 and 4 was investigated in two cell lines; B16-F1 and J774A.1 known for low (15-20%) and high galectin-expression (80-85%) respectively 37. The cells were grown in DMEM with 10% FCS, maintained in 5% CO2, 95% air and 100% humidity. For uptake studies 1×10^6 cells were plated in 60 mm dishes. […] The cells were then gently removed from the dishes, 1.0 ml aliquots were transferred into 1 cm quartz cuvettes and their fluorescence was read on a PT1model ALBHA1 fluorimeter, at 701 nm using an excitation of wavelength of 414 nm. Protein determinations were done using Bio-rad protein assay, protein levels were determined from a standard curve. The data was represented as fluorescence/μg protein.

J774A.1 cells [2] = test: In vitro photosensitizing efficacy in J774A.1 cells, high Gal-1 expression (MTT); type: cell-based
Protocol: For determining photosensitizing efficacy in B16-F1 and J774A.Cell were plated at 1×10^4 and 2×10^4 cells per well respectively in 96 well plates. After overnight incubation, compounds 1 and 4 at the same concentration (0-2 μM) were added. After further 3 hr incubation, cells were washed with PBS and irradiated with white light (0-4 joules). […] The cells were then incubated in complete media for 48 hrs and assayed for survival using the standard MTT assay.

SMILES: C=C(C=CCO[C@@H]1O[C@H](CO)[C@@H](O[C@@H]2O[C@H](CO)[C@H](O)[C@H](O)[C@H]2O)[C@H](O)[C@H]1O)CN1C(=O)c2c3nc(cc4[nH]c(cc5nc(cc6[nH]c2c(c6C)C1=O)C(CC)=C5C)c(CC)c4C)C(C)C3CCC(=O)OC (mixture of isomers) [4a, Lactose-Chlorin conjugate joined with diene linkage]
- drug uptake (J774A.1 cells [1]): increased uptake
- PDT efficacy on addition of free lactose (J774A.1 cells [2]; free lactose (100 μM)): almost completely inhibited
- phototoxicity compared to photosensitizer 1a (J774A.1 cells [2]; high Gal-1 expression (80-85%), 1.0 μM): enhanced phototoxicity
